Data from publication PMC8236048, “Pharmaceutical design of a delivery system for the bacteriocin lacticin 3147” (Drug Delivery and Translational Research, 2021).

How the values were obtained:
[1] = test system: L. monocytogenes ATCC1916; test: Well diffusion assay, lacticin 3147 SLNs vs free peptide; type: cell-based; settings: 6-mm wells, 12.5 µL α + 12.5 µL β component, 0.2 µm filtered, free peptide in water at the total peptide content of the SLNs, mean ± SD
Experimental: The activity of the lacticin 3147 SLNs was evaluated using the well diffusion assay method, on TSA supplemented with 6 g/L yeast. The inhibition zones were reported in millimetre (mm) using electronic Vernier callipers. […] Wells were bored in the agar after it hardened using a sterile 6-mm cork borer. α-SLN and β-SLN were filtered using a 0.2-μm PES filter (SLNs can pass through), and 12.5 μL of each was added to the same well. The blank SLNs were used as negative controls (25 μL). […] The free peptides were filtered again using a 0.2-μm PES filter before addition to the wells to ensure sterility. All tests were performed in triplicate.

[2] = cited from earlier work
Description: (§1) Gardiner et al., however, reported that α-chymotrypsin alone degrades lacticin 3147 [21]. Lacticin 3147 is heat stable, pH stable, and active at a neutral pH [9]. However, quantitative data on the amount of lacticin 3147 dissolved, i.e. its solution concentration, is rarely reported. In fact, only a handful of quantitative solubility studies on bacteriocins can be found in the literature [[ ...

[3] = molecular target: T1, pepsin (Sus scrofa, UniProt P00791); settings: cited from earlier work
T1 construct: purchased Sigma-Aldrich Ireland Ltd
T1 sequence (P00791 60-385): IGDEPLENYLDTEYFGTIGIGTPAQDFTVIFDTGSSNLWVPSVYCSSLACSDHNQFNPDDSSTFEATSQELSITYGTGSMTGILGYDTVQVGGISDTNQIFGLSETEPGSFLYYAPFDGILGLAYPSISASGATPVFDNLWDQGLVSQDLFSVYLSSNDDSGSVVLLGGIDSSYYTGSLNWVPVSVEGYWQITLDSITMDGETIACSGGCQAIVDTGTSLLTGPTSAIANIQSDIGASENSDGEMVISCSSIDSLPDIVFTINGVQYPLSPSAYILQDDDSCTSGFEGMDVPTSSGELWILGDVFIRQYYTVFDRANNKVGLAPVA
Description: as §1

[4] = test system: trypsin; settings: cited from earlier work
Description: as §1

In the case of lacticin 3147, the zone of inhibition [1] is given as 12.9 ± 0.3 mm, the heat stability [2] is given as “heat stable” and the pH stability [2] is given as “pH stable”. The “effect of pepsin on activity” value [3] was “unaffected” and the effect of trypsin [4] was “degraded and inactivated”.
